Test results reported in PMC11403612, “Preparation and Preclinical Characterization of a Simple Ester for Dual Exogenous Supply of Lactate and Beta-hydroxybutyrate” (Journal of Agricultural and Food Chemistry, 2024).

Test: In vitro stability in simulated intestinal fluid
Format: in vitro ADME
Details: simulated intestinal fluid (SIF) with pancreatin, intestinal enzymes (pancreatin), pH = 6.8
Experimental: The in vitro stability of LaKe was evaluated following incubation in simulated gastric fluid (SGF), simulated intestinal fluid (SIF), fresh and frozen plasma (rats and humans, respectively), and the presence of hepatocytes (rats and humans) and liver microsomes (rats and humans). At the chosen time points, the mixtures were analyzed by LC-MS/MS to quantify the remaining LaKe and all assays included at least one control compound with known pharmacokinetic properties. […]
centrifuged at 4000 rpm, 4℃ for 20 min. 60 μL of supernatant was mixed with 180 μL of purified water for subsequent LC/MS/MS analysis.
LC-MS/MS Condition: ACQUITY UPLC BEH C18 1.7um 2.1 * 50mm Column (Part No.186002350). Mobile phase: A: 0.1% Formic Acid in Water; B: 0.1% Formic Acid in ACN.
Stability of LaKe in simulated intestinal fluid (SIF)
Preparation of SIF-solution: 0.136 g KH2PO4 and 0.064 g pancreatin was dissolved H2O to a total volume of solution 20 mL. The pH of the test solution was adjusted to 6.80 ± 0.05.
Procedure: 2 μL of a 10mg/ml working solution of LaKe in DMSO was spiked into 96-deep-well plates corresponding to timepoints T0, T60, T120, T360 and T1440. Experiments were performed in duplicate. 198 μL of SIF solution was then transferred to the individual wells (except T0) to reach 0.1mg/ml as the final test concentration for each time point (60, 120, 360, 1440 minutes). […]

## CC(O)CCOC(=O)C(C)O (stereo not shown) [LaKe, 3-hydroxybutyl 2-hydroxypropanoate]
  half-life at 0.1 mg/ml: < 2 h
